Patent US9636323B2, “Method of treating cancer that overexpresses TopBP1” (Baylor College of Medicine, priority 2014, dated 2017)

How the values were obtained:
TopBP1 oligomerization [1] = experiment: TopBP1 oligomerization in MDA-MB468 cells (co-IP of tagged TopBP1, DMP cross-linking); format: cell-based, human; conditions: 2.5 μM, 5 h
Protocol: (§1) MDA-MB468 cells were lysed with TNN buffer (Liu et al. 2003). An aliquot of cell lysates was lysed with SDS lysis buffer and the rest of cell lysates were incubated with appropriate antibodies or beads at 4° C. for 3-12 h. Anti-FLAG beads (Sigma) were washed three times with TNN buffer. Immunoprecipitates were fractionated by SDS-PAGE and electro-transferred to Immobilon-P membrane (Millipore). Equal amount of protein loading was validated with Ponceau-S staining. The specific signals were detected by incubating with appropriate antibody. All primary antibodies were used at 1:1000 dilution and horseradish peroxidase (HRP)-conjugated secondary antibodies were used at 1:5000 dilution for immunoblotting. E2F1 (C-20 and KH-95), p53 (FL393), p63 (4A4 and H-129), p73 (H-79), p21 (C-19), Bax (N-20), GST (B-14), c-Myc (A14), Miz1 (H-190), Chk1 (G4), Actin (C-2) and GAPDH (6C5) antibodies were purchased from Santa Cruz. TopBP1 (mouse monoclonal) and Aid antibodies were purchased from BD Transduction Laboratories. TopBP1 (BL893, Rabbit polyclonal) antibody was purchased from Bethyl. Mouse monoclonal anti-phospho-γH2AX was purchased from Millipore. Phospho-Chk1 (Ser345) antibody was purchased from Cell signaling. FLAG (F7425) antibody was purchased from Sigma. Mouse monoclonal anti-p73 (IMG-246) was purchased from IMGENEX. […]

TopBP1 oligomerization [2] = target: T1, TopBP1 oligomerization (Homo sapiens, UniProt Q92547); experiment: as above; format: cell-based; conditions: 2.5 μM, 5 h
T1 construct: endogenous in cells; host or cells: MDA-MB468
T1 sequence (Q92547 whole entry): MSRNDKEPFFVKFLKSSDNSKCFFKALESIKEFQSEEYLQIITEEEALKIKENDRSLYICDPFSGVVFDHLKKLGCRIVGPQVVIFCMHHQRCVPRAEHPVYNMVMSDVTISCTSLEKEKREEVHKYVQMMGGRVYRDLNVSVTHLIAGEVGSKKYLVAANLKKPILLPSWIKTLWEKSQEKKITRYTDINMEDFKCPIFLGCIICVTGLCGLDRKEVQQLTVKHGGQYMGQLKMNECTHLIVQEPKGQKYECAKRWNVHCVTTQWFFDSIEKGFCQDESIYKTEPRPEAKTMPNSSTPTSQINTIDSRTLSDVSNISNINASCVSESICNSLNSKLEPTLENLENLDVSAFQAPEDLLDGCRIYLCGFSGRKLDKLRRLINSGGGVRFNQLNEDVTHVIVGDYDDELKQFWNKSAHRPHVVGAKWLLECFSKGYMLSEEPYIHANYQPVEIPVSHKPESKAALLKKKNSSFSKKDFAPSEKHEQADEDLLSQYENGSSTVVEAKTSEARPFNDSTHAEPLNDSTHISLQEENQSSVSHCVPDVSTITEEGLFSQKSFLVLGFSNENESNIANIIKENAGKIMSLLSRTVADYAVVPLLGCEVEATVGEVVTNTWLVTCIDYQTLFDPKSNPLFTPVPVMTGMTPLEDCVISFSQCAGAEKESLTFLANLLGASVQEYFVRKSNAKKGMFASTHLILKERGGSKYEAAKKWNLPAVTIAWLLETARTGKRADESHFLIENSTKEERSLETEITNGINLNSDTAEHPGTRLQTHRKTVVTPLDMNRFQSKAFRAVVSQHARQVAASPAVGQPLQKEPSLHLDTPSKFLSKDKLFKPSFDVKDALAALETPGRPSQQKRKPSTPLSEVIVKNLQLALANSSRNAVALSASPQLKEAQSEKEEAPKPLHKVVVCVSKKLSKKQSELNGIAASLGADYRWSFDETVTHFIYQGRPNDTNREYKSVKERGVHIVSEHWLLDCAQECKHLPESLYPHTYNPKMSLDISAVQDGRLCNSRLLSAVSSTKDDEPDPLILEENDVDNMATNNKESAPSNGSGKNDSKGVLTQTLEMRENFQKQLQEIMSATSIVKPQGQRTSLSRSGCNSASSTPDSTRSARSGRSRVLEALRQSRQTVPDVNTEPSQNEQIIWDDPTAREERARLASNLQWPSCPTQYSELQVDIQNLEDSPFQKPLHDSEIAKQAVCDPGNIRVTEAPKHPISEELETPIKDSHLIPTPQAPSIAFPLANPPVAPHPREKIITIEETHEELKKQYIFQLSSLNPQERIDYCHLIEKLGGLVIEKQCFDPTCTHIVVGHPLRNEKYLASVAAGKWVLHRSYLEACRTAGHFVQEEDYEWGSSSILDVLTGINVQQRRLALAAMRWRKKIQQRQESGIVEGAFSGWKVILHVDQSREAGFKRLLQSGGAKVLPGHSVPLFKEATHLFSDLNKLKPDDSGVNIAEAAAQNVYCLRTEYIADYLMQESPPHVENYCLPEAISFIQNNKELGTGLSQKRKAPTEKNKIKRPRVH
Protocol: as §1

BT549 cells = experiment: Caspase-Glo 3/7 activity assay, BT549; format: cell-based, human; conditions: for Calcein AM-induced apoptosis: 17 h
Protocol: (§2) The apoptosis was measured by Caspase-Glo® 3/7 assay (Promega) following the manufacturer's protocol. The cells were plated in 6-well tissue culture dish (10^4 cells/well) (BD Falcon) in respective media. […] The blank reactions were prepared per direction. Equal volume of Caspase-Glo® 3/7 reagents were applied to each well. A luminometer (Sirius) was used to quantitate luminescence.
To prepare TopBP1 knockdown stable cell line, MDA-MB468 cells were infected with lentivirus expressing TopBP1 shRNA (Liu et al. 2011) as well as scramble shRNA, separately. The infected cells were grown for 48 h followed by selection with puromycin (2 μg/ml). After selection, the knockdown was confirmed by Western blotting before further experiments. Two different pLKO-shTopBP1 (#1 and #2) constructs (Open Biosystems, RHS4533-NM_007027) were used to deplete TopBP1 in MDA-MB468 cells. Additional two pSuper-shTopBP1 constructs (Liu et al. 2004) were used to knock down TopBP1 in HEK293 cells. Two pSuper-shE2F1 constructs were used to deplete E2F1: shE2F1#1 (described previously (Liu et al. 2004)), and shE2F1#2 (target sequence 5′-[…]-3′). The target sequence for pSuperior-shE2F1 is the same as pSuper-shE2F1#1. To deplete p63, shp63alpha pLKO.1-puro (from Addgene, 19120) was used. TP73 MISSION shRNA (shp73 pLKO.1-puro) was purchased from Sigma (TRCN00002722587).

[3] = test system: mutp53(R249S)/p73 interaction; experiment: Anti-p73 immunoprecipitation in BT549 cells; format: cell-based, human; conditions: 2.5 μM, 5 h
Protocol: (§3) MDA-MB468 cells were lysed with TNN buffer (Liu et al. 2003). An aliquot of cell lysates was lysed with SDS lysis buffer and the rest of cell lysates were incubated with appropriate antibodies or beads at 4° C. for 3-12 h. Anti-FLAG beads (Sigma) were washed three times with TNN buffer. Immunoprecipitates were fractionated by SDS-PAGE and electro-transferred to Immobilon-P membrane (Millipore). Equal amount of protein loading was validated with Ponceau-S staining. The specific signals were detected by incubating with appropriate antibody. All primary antibodies were used at 1:1000 dilution and horseradish peroxidase (HRP)-conjugated secondary antibodies were used at 1:5000 dilution for immunoblotting. E2F1 (C-20 and KH-95), p53 (FL393), p63 (4A4 and H-129), p73 (H-79), p21 (C-19), Bax (N-20), GST (B-14), c-Myc (A14), Miz1 (H-190), Chk1 (G4), Actin (C-2) and GAPDH (6C5) antibodies were purchased from Santa Cruz. TopBP1 (mouse monoclonal) and Aid antibodies were purchased from BD Transduction Laboratories. TopBP1 (BL893, Rabbit polyclonal) antibody was purchased from Bethyl. Mouse monoclonal anti-phospho-γH2AX was purchased from Millipore. Phospho-Chk1 (Ser345) antibody was purchased from Cell signaling. FLAG (F7425) antibody was purchased from Sigma. Mouse monoclonal anti-p73 (IMG-246) was purchased from IMGENEX.

MDA-MB231 cells = experiment: Caspase 3/7 activity assay, MDA-MB231; format: cell-based, human; conditions: 2.5 μM overnight
Protocol: as §2

[4] = target: T2, TopBP1/mutp53(R273H) interaction (Homo sapiens, UniProt Q92547); experiment: Co-immunoprecipitation in MDA-MB468 cells, TopBP1/mutp53; format: cell-based; conditions: 2.5 μM, 5 h
T2 construct: endogenous in cells; host or cells: MDA-MB468
T2 sequence (Q92547 whole entry, stated change not applied): as the sequence (Q92547 whole entry) above
Protocol: as §3

Hs-578T = conditions: NCI-DTP database; cited from earlier work
[5] = target: T3, TopBP1/E2F1 interaction in HEK293T cells (Homo sapiens, UniProt Q92547); experiment: Co-immunoprecipitation of overexpressed E2F1 and TopBP1; format: cell-based; conditions: 5 h
T3 construct: expressed in transfected cells
T3 sequence (Q92547 whole entry): as above
Protocol: as §3

CC(=O)OCOC(=O)CN(CC(=O)OCOC(C)=O)Cc1cc2c(cc1OC(C)=O)Oc1cc(OC(C)=O)c(CN(CC(=O)OCOC(C)=O)CC(=O)OCOC(C)=O)cc1C21OC(=O)c2ccccc21 [Calcein AM, Calcein AM (acetoxymethyl ester)]
TopBP1 oligomerization, differentially tagged TopBP1 (TopBP1 oligomerization [1]): inhibit TopBP1 oligomerization
endogenous TopBP1 oligomerization, DMP chemical crosslinking assay (TopBP1 oligomerization [2]): blocked endogenous TopBP1 oligomerization
concentration at which apoptosis was induced (BT549 cells; 16 h): ≥ 1 µM
Calcein AM response, caspase activation (BT549 cells; E2F1 depleted by two shRNA constructs, 2.5 μM, 16 h): attenuated
Calcein AM-induced apoptosis (BT549 cells; p63 depleted, 2.5 μM): decreased
Calcein AM-induced apoptosis (BT549 cells; p73 depleted, 2.5 μM): decreased
binding of p73 to mutp53(R249S) [3]: release of p73 from mutp53(R249S)
apoptosis (caspase 3/7 activity) (MDA-MB231 cells): induced apoptosis
TopBP1/mutp53 interaction at physiological levels [4]: inhibited
GI50 (Hs-578T): < 400 nM
interaction between overexpressed E2F1 and TopBP1 [5]: inhibited the interaction between overexpressed E2F1 and TopBP1
